Assay results reported in paper PMC11990670, “Exploring the Volatility, Phase Transitions, and Solubility Properties of Five Halogenated Benzaldehydes” (Molecules, 2025).
Where “and” joins values, the source holds several entries; their conditions need not be identical. Equal entries are not always repeated. Where two headings read alike, the source gives them in different places. Marks after values point to notes of the source that are not given here.

Columns and labels:
[1] = pH of the saturated aqueous solutions; format: physicochemical; conditions: saturated aqueous solution of the solubility experiment
Method: The concentration was measured by absorbances at 260 nm for 4-chlorobenzaldehyde, 263 nm for 4-bromobenzaldehyde and 2,4-dichlorobenzaldehyde, 297 nm for 2,6-dichlorobenzaldehyde, and 306 nm for 2,3-dichlorobenzaldehyde, using a Cary-60 UV–vis (Agilent) spectrophotometer. X-ray diffraction (XRD) and differential scanning calorimetry of residual solids were used to identify the eventual phase transformations. The purified samples of each compound studied were used for all experimental determinations, including the solubility measurements. After reaching the equilibrium, the residual solid was dried and analyzed using both DSC and XRD. The melting properties obtained from DSC were compared with those of the original purified sample, following the same procedure for the XRD analysis. […] As an example, the supporting information includes two thermograms and two XRD patterns for 2,4-dichlorobenzaldehyde (Figures S1 and S2). […] Equation (4) was derived from Equation (5), which is widely applicable to the solubility of solids.(4) ΔhydrGm°/kJ·mol^−1=9.17−5.71·log10(Scr/mol·m^−3)−ΔcrgGm°/kJ·mol^−1 (5) S=p^°/RTexpΔcrgGm°+ΔhydrGm°/−RT
An excess amount of each compound was added to a known volume of water in triplicate. […] After stirring, the solid phase was allowed to settle for 2 h. The pH of the saturated solutions was measured using a Mettler Toledo (Greifensee, Switzerland) FiveEasy F20 pH Meter calibrated with standard aqueous solutions (pH 7.00 and 4.01 or 10.1). Those solutions were then filtered through a 0.22 μm syringe hydrophilic filter (13 mm, PTFE, Labfil, Zhejiang, China) and diluted to the required concentration. The concentration of the compounds, expressed in molarity, was measured by absorbances using a Cary-60 UV–vis spectrophotometer (Agilent Technologies, Santa Clara, CA, USA) at 298.15 K (single cell Peltier accessory, ±0.15 K). The results reported in Table 6 are averaged from at least three replicates. Calibration was performed using solutions of known concentrations of each substance in water. These solutions were prepared by adding a precise mass of the substance and a specific volume of the solvent to a flask, then mixing until the substance was fully dissolved. The absorbance of these solutions was measured, and calibration curves were created.

[2] = 20 °C, cited from earlier work
[3] = Vapor pressures of crystalline and liquid phases, static method with capacitance diaphragm gauge; format: physicochemical
Description: A previously described and tested static apparatus was used to measure the vapor pressures of the condensed phases (both crystalline and liquid) of the five compounds studied. This installation employs MKS capacitance diaphragm absolute gauges, operating at self-regulated constant temperatures. Our lab is equipped with three pressure gauges. Gauge I, a Baratron 631A01TBEH (MKS instruments, Andover, MA, USA) (Tgauge = 423 K), measures pressures in the range of 0.5 to 1.3 × 10^2 Pa and operates within a temperature range of 253 to 413 K. Gauge II, the instrument used in this study, is a Baratron 631A11TBFP (MKS instruments, Andover, MA, USA) (Tgauge = 473 K), capable of measuring pressures from 0.5 to 1.3 × 10^3 Pa within a temperature range of 253 to 433 K and gauge III, a Baratron 631D02T8FP (MKS instruments, Andover, MA, USA) (Tgauge = 473 K), designed to measure pressures between 0.5 Pa and 2.6 × 10^2 Pa, also within a temperature range of 253 to 433 K. The temperatures of the samples were measured using a Pt100 platinum resistance thermometer, calibrated by comparison with a standard platinum resistance thermometer (SPRT: Tinsley Precision Instruments Ltd, London, England). To prevent vapor condensation, the tubing connecting the cell containing the condensed sample to the pressure gauge is maintained at a temperature higher than that of the sample but lower than that of the gauge. The uncertainty in temperature measurements is estimated to be u(T/K) = ±0.01, and the expanded uncertainties (0.95 confidence level, k = 2) in pressure measurements are given by the expression U(p/Pa) = 0.1 + 0.0050 (p/Pa) for the gauge used. Samples were thoroughly degassed before starting the vapor pressure measurements, ensuring consistent readings at specific temperatures and eliminating any residual volatile substances, including water.

[4] = cited from earlier work

- pH of the saturated solution [1]: 6.61
- vapor pressure p ([3]; crystalline phase, T = 267.45 K): 0.57 Pa
- vapor pressure p ([3]; crystalline phase, T = 269.33 K): 0.72 Pa
- vapor pressure p ([3]; crystalline phase, T = 271.42 K): 0.93 Pa
- vapor pressure p ([3]; crystalline phase, T = 273.29 K): 1.15 Pa
- vapor pressure p ([3]; crystalline phase, T = 275.39 K): 1.48 Pa
- vapor pressure p ([3]; crystalline phase, T = 277.25 K): 1.84 Pa
- vapor pressure p ([3]; crystalline phase, T = 279.32 K): 2.33 Pa
- vapor pressure p ([3]; crystalline phase, T = 281.20 K): 2.90 Pa
- vapor pressure p ([3]; crystalline phase, T = 283.26 K): 3.60 Pa
- vapor pressure p ([3]; crystalline phase, T = 285.16 K): 4.49 Pa
- vapor pressure p ([3]; crystalline phase, T = 287.22 K): 5.65 Pa
- vapor pressure p ([3]; crystalline phase, T = 289.23 K): 6.93 Pa
- vapor pressure p ([3]; crystalline phase, T = 291.18 K): 8.49 Pa
- vapor pressure p ([3]; crystalline phase, T = 293.07 K): 10.45 Pa
- vapor pressure p ([3]; crystalline phase, T = 295.14 K): 12.75 Pa
- vapor pressure p ([3]; crystalline phase, T = 297.14 K): 15.67 Pa
- vapor pressure p ([3]; crystalline phase, T = 299.12 K): 19.07 Pa
- vapor pressure p ([3]; crystalline phase, T = 300.99 K): 23.01 Pa
- vapor pressure p ([3]; crystalline phase, T = 303.05 K): 28.05 Pa
- vapor pressure p ([3]; crystalline phase, T = 305.04 K): 34.26 Pa
- vapor pressure p ([3]; crystalline phase, T = 306.98 K): 40.71 Pa
- vapor pressure p ([3]; crystalline phase, T = 309.01 K): 49.06 Pa
- vapor pressure p ([3]; crystalline phase, T = 310.96 K): 58.06 Pa
- vapor pressure p ([3]; crystalline phase, T = 312.92 K): 69.28 Pa
- vapor pressure p ([3]; crystalline phase, T = 314.91 K): 82.74 Pa
- vapor pressure p ([3]; liquid phase, T = 319.87 K): 125.4 Pa
- vapor pressure p ([3]; liquid phase, T = 321.85 K): 143.8 Pa
- vapor pressure p ([3]; liquid phase, T = 323.75 K): 162.2 Pa
- vapor pressure p ([3]; liquid phase, T = 325.71 K): 183.0 Pa
- vapor pressure p ([3]; liquid phase, T = 327.66 K): 206.8 Pa
- vapor pressure p ([3]; liquid phase, T = 329.70 K): 235.5 Pa
- vapor pressure p ([3]; liquid phase, T = 331.69 K): 264.4 Pa
- vapor pressure p ([3]; liquid phase, T = 333.66 K): 298.2 Pa
- vapor pressure p ([3]; liquid phase, T = 335.64 K): 336.0 Pa
- vapor pressure p ([3]; liquid phase, T = 337.61 K): 375.5 Pa
- vapor pressure p ([3]; liquid phase, T = 339.57 K): 415.3 Pa and 416.0 Pa
- vapor pressure p ([3]; liquid phase, T = 341.56 K): 468.0 Pa
- vapor pressure p ([3]; liquid phase, T = 343.52 K): 520.0 Pa
- vapor pressure p ([3]; liquid phase, T = 345.50 K): 578.0 Pa
- vapor pressure p ([3]; liquid phase, T = 347.47 K): 640.9 Pa
- vapor pressure p ([3]; liquid phase, T = 347.50 K): 641.0 Pa
- vapor pressure p ([3]; liquid phase, T = 349.45 K): 711.8 Pa
- vapor pressure p ([3]; liquid phase, T = 351.43 K): 788.7 Pa
- vapor pressure p ([3]; liquid phase, T = 353.30 K): 864.6 Pa
- vapor pressure p ([3]; liquid phase, T = 355.30 K): 958.0 Pa
- vapor pressure p ([3]; liquid phase, T = 357.33 K): 1058 Pa
- vapor pressure p ([3]; supercooled liquid, T = 305.70 K): 48.17 ^d Pa
- vapor pressure p ([3]; supercooled liquid, T = 307.91 K): 56.22 ^d Pa
- vapor pressure p ([3]; supercooled liquid, T = 309.86 K): 65.09 ^d Pa
- vapor pressure p ([3]; supercooled liquid, T = 311.92 K): 75.03 ^d Pa
- vapor pressure p ([3]; supercooled liquid, T = 313.90 K): 86.06 ^d Pa
- vapor pressure p ([3]; supercooled liquid, T = 315.83 K): 96.33 ^d Pa
- vapor pressure p ([3]; supercooled liquid, T = 317.92 K): 110.0 ^d Pa
Structure (SMILES): O=Cc1ccc(Cl)cc1 [4-Chlorobenzaldehyde]
- water solubility ([2]; converted from 935 mg/L): 6.652 mM
- water solubility [2]: 935 µg/mL
- water solubility, estimated value ([4]; 25 °C, converted from 1340 mg/L): 9.532 mM
- water solubility, estimated value ([4]; 25 °C): 1340 µg/mL
- water solubility, estimated value ([4]; ALI method): 8.15 mM
- water solubility, estimated value ([4]; ESOL method): 3.45 mM
- water solubility, estimated value ([4]; SILICO-IT method): 1.16 mM
